The test system of experiment [1] is Spleen cells from BDF1 female mice. The experiment in a line: Mitogenesis Assay for Immunosuppressive Activity (concanavalin A-stimulated spleen cells, 3H-thymidine). The settings on record: Concanavalin A (5 μg/ml), 72 hours. The class given is cell-based. How it is done: Spleen cells from BDF1 female mice were established in RPMI with 10% fetal calf serum at 5×10^6 /ml. One hundred […] aliquots of this suspension (5×10^5 cells) were dispensed into 96-well round-bottomed microtiter plates (Linbro, Flow Laboratories). Concanavalin A (5 μg/ml) was added as the mitogenic stimulus, and the final volume in the microtiter wells was adjusted to 200 μL with RPMI. Cell cultures were incubated for 72 hours at 37 degrees C. in a 5% CO2 atmosphere and pulsed with 0.5μ Ci ^3 H-thymidine (specific activity […]) for the last 18 hour culture. The cells were harvested on an automated multiple sample harvester and cell-associated radioactivity counted in a Beckman liquid scintillation counter. The results are expressed as the mean values derived from quadruplicate measurements. Cell viability was determined by trypan blue exclusion after 72 hours of incubation. Compounds to be tested were added to the microtiter plates at the appropriate dilutions prior to the addition of cells.

The test system of a further experiment is Saccharomyces cerevisiae. Description: Assay for Antifungal Activity (yeast agar well zone of inhibition). The class given is cell-based. The settings on record: 48 hours. The method, then:
Yeast organisms (Saccharomyces cerevisiae) in logarithmic growth were plated on complete agar medium (YPD). The compound was dissolved in an appropriate aqueous or organic solvent and placed in wells punched in the agar. Plates were incubated for 48 hours and zones of inhibition were measured.
IC12^(nM) refers to the concentration of drug in the antifungal assay which produces a 12 mm zone of inhibition.

Results on 1 compound are retold here after patent publication US5491229A, “Rapamycin derivative” (SmithKline Beecham PLC, priority 1991, dated 1996).

For the compound `CO[C@H]1C[C@@H]2CC[C@@H](C)C(O)(CC(=O)N3CCCC[C@H]3C(=O)O[C@H]([C@H](C)C[C@@H]3CC[C@@H](O)[C@H](OC)C3)CC(=O)[C@H](C)/C=C(\C)[C@@H](O)[C@@H](OC)C(=O)[C@H](C)C[C@H](C)/C=C/C=C/C=C/1C)O2` [14-methylene rapamycin], in experiment [1], the “immunosuppressive / immunomodulatory activity (in words)” value is “has both antifungal and immunomodulatory activity”. The IC50 (as a rule, the concentration at which inhibition is half-maximal) in experiment [1] (Mus musculus, 37 degrees C., 3H-thymidine) amounted to 15 nM. For the same compound, the IC (12 mm zone of inhibition) in the experiment on Saccharomyces cerevisiae (Saccharomyces cerevisiae on YPD agar, read-out: Yeast IC12 (concentration of drug in the antifungal assay which produces a 12 mm zone of inhibition)) worked out at 0.013 µM. Also, the “antifungal activity (in words)” value in the experiment with Saccharomyces cerevisiae (Saccharomyces cerevisiae) is “has both antifungal and immunomodulatory activity”.
